We go through 13 compounds from Sander's compilation of Henry's law constants (doi:10.1080/00039896.1979.10667371).

The series can be described thus: Henry solubility constant Hcp at 310 K (mol/(m3 Pa)). The conditions noted are these: reference: Sato and Nakajima (1979b).
Consider `ClC=C(Cl)Cl` [trichloroethene], for which the “Henry solubility constant Hcp at 310 K” value is 0.0005.

Regarding `Clc1ccccc1` [chlorobenzene], the “Henry solubility constant Hcp at 310 K” value amounted to 0.0016.

For `CCCCCl` [1-chlorobutane], the “Henry solubility constant Hcp at 310 K” value amounted to 0.00033.

Regarding `ClC(Cl)(Cl)Cl` [tetrachloromethane], the “Henry solubility constant Hcp at 310 K” value came out at 9.7e-05.

As to `ClCC(Cl)Cl` [1,1,2-trichloroethane], the “Henry solubility constant Hcp at 310 K” value was found to be 0.0066.

For the compound `ClC(Cl)C(Cl)Cl` [1,1,2,2-tetrachloroethane], the “Henry solubility constant Hcp at 310 K” value was found to be 0.014.

As to `ClCCl` [dichloromethane], the “Henry solubility constant Hcp at 310 K” value turned out to be 0.0028.

On to `ClCC(Cl)(Cl)Cl` [1,1,1,2-tetrachloroethane], for which the “Henry solubility constant Hcp at 310 K” value is 0.0021.

With `ClC(Cl)=C(Cl)Cl` [tetrachloroethene], the “Henry solubility constant Hcp at 310 K” value was 0.00017.

Regarding `CC(Cl)(Cl)Cl` [1,1,1-trichloroethane], the “Henry solubility constant Hcp at 310 K” value worked out at 0.00036.

As to `Clc1cccc(Cl)c1` [1,3-dichlorobenzene], the “Henry solubility constant Hcp at 310 K” value worked out at 0.0021.

In the case of `CC(Cl)CCl` (stereo not drawn) [1,2-dichloropropane], the “Henry solubility constant Hcp at 310 K” value was found to be 0.0021.

With `CCCCCCl` [1-chloropentane], the “Henry solubility constant Hcp at 310 K” value stood at 0.00027.
